Experimental data from EP0059683A2, “7-Acylamido-3-cephem-4-carboxylic acids, process for their preparation, pharmaceutical compositions containing them and their use” (CIBA-GEIGY AG, priority 1981, dated 1982).
Converted amounts (≈) assume the structure as drawn.

What was measured:
Escherichia coli 205 [1] = assay: Antibiotic activity in vitro, agar dilution method in DST agar (MIC); type: cell-based; conditions: for MIC: Escherichia coli, 205
Description: (§1) A. Die antibiotische Aktivität der Testverbindungen in vitro wurde durch die Agarverdünnungsmethode nach Ericsson, H.M., und Sherris, S.C., 1971, Acta Path. Microb. Scand. Section B, Suppl. No. 217, Bd. 1-90, in DST Agar ermittelt. Die gefundenen, das Wachstum der Testorganismen noch hemmenden Minimalkonzentrationen (MIC = minimum inhibiting concentrations) werden in Mikrogramm pro Milliliter […] für die geprüften Verbindungen in der Tabelle 1 angegeben.

[2] = tested on: Klebsiella pneumoniae 327; assay: as above; type: cell-based; conditions: for MIC: Klebsiella pneumoniae, 327
Description: as §1

[3] = tested on: Pseudomonas aeruginosa 799/61; assay: as above; type: cell-based; conditions: for MIC: Pseudomonas aeruginosa, 799/61
Description: as §1

[4] = tested on: Salmonella typhimurium 277; assay: as above; type: cell-based; conditions: for MIC: Salmonella enterica, TYPHIMURIUM
Description: as §1

Escherichia coli 205 [5] = assay: Chemotherapeutic efficacy in vivo against systemic infection in mice (ED50); conditions: s.c., female SPF MF2 mice; for ED50: Escherichia coli, 205, sc
Description: (§2) B. Die chemotherapeutische Wirksamkeit in vivo gegen systemische Infektionen in weiblichen SPF, MF2 Mäusen wurde nach der Methode von Zak., 0., et al., 1979, Drugs Exptl. Clin. Res. 5, 45-59, ermittelt. Die gefundenen ED50-Werte in Milligramm Substanz pro Kilogramm Maus (mg/kg) für eine Anzahl von Mikroorganismen werden für die oral (p.o.) oder subcutan (s.c.) applizierten Testverbindungen in der Tabelle 2 angegeben.

Proteus morganii 2359 = assay: as above; conditions: s.c., female SPF MF2 mice; for ED50: Morganella morganii, 2359, sc
Description: as §2

[6] = tested on: Staphylococcus anvens 10B; assay: as above; conditions: female SPF MF2 mice; for ED50: Staphylococcus, 10B, sc
Description: as §2

Row | SMILES | MIC (Escherichia coli 205 [1]) | MIC [2] | MIC [3] | MIC [4] | ED50 (Escherichia coli 205 [5]) | ED50 (Proteus morganii 2359) | ED50 [6] | MIC Escherichia coli 205 (Escherichia coli 205 [1]) | MIC Klebsiella pneumoniae 327 [2] | MIC Pseudomonas aeruginosa 799/61 [3] | MIC Salmonella typhimurium 277 [4] | ED50 Escherichia coli 205 (Escherichia coli 205 [5]) | ED50 Proteus morganii 2359 (Proteus morganii 2359) | ED50 Staphylococcus anvens 10B ([6]; s.c.)
1 | Cn1nnnc1SCC1=C(C(=O)O)N2C(=O)[C@@H](NC(=O)CCCNC(=O)OC[C@@H](N)C(=O)O)[C@H]2SC1 [Testverbindung 30] | 2 µg/mL (≈ 3.67 µM) | 0.5 µg/mL (≈ 0.918 µM) | 0.5 µg/mL (≈ 0.918 µM) | 0.5 µg/mL (≈ 0.918 µM) | 1.7 mg/kg | 10 mg/kg | > 30 mg/kg | – | – | – | – | – | – | –
2 | NC(=O)c1cc[n+](CC2=C(C(=O)[O-])N3C(=O)C(NC(=O)C(NC(=O)OC[C@@H](N)C(=O)O)c4csc(N)n4)C3SC2)cc1 (stereo partly drawn) [Testverbindung 26, 3-(4-Carbamoylpyridiniomethyl)-7β-[(2R,S)-2-((2R)-2-amino-2-car-boxyäthoxycarbonylamino)-2-(2-aminothiazol-4-yl)-acetamido]-3-cephem-4-carboxylat] | – | – | – | – | – | – | – | 0,1 µg/ml | 0,1 µg/ml | 0,5 µg/ml | 0,1 µg/ml | 1 mg/kg | 70 mg/kg | >30 mg/kg
3 | CC(=O)OCC1=C(C(=O)O)N2C(=O)[C@@H](NC(=O)CCCNC(=O)OC[C@@H](N)C(=O)O)[C@H]2SC1 [Testverbindung 29] | 32 µg/mL (≈ 65.5 µM) | 4 µg/mL (≈ 8.19 µM) | 1 µg/mL (≈ 2.05 µM) | 2 µg/mL (≈ 4.09 µM) | 7 mg/kg | 75 mg/kg | > 30 mg/kg | – | – | – | – | – | – | –
4 | CO[C@@]1(NC(=O)CCCNC(=O)OC[C@@H](N)C(=O)O)C(=O)N2C(C(=O)O)=C(CSc3nnnn3C)CS[C@@H]21 [Testverbindung 28] | 1 µg/mL (≈ 1.74 µM) | 0.5 µg/mL (≈ 0.87 µM) | 0.2 µg/mL (≈ 0.348 µM) | 0.5 µg/mL (≈ 0.87 µM) | 4 mg/kg | 5 mg/kg | > 30 mg/kg | – | – | – | – | – | – | –
5 | NC(=O)c1cc[n+](CC2=C(C(=O)[O-])N3C(=O)[C@@H](NC(=O)C(NC(=O)OC[C@@H](N)C(=O)O)c4csc(N)n4)[C@H]3SC2)cc1 (stereo partly drawn) [Testverbindung 26] | 0.2 µg/mL (≈ 0.322 µM) | 0.5 µg/mL (≈ 0.806 µM) | 0.5 µg/mL (≈ 0.806 µM) | 0.2 µg/mL (≈ 0.322 µM) | 9 mg/kg | 10 mg/kg | 15 mg/kg | – | – | – | – | – | – | –
6 | CO[C@@]1(NC(=O)CCCNC(=O)OC[C@@H](N)C(=O)O)C(=O)N2C(C(=O)O)=C(COC(C)=O)CS[C@@H]21 [Testverbindung 27] | 1 µg/mL (≈ 1.93 µM) | 1 µg/mL (≈ 1.93 µM) | 0.5 µg/mL (≈ 0.964 µM) | 1 µg/mL (≈ 1.93 µM) | 14 mg/kg | 8 mg/kg | > 30 mg/kg | – | – | – | – | – | – | –
